The values that follow come from US12404232B2, “Compounds and compositions for intracellular delivery of therapeutic agents” (ModernaTX, Inc., priority 2015, dated 2025).

The test system of one series is rats. The series is described as follows: Residual lipid levels in liver and spleen of rats (UPLC-MS quantification). In kind it is in vivo, rat. As to conditions: rats, 2 mpk, 48 h; assuming 300 g rat and 15 g liver. Here is the method: At 48 h liver tissue was harvested for lipid quantification. To pre-weighed tissues, Milli-Q water was added (900 μL water per 100 mg tissue). Tissues were homogenized using an Omni probe homogenizer until uniform. 50 μL of samples and matrix calibration standards were aliquoted into a 96-well plate. 50 μL of blank matrix for matrix blanks and control blanks were aliquoted. 400 μL IS spiking solution were manually added to all samples except matrix blanks. 400 μL of 50:50 ACN:IPA were manually added to matrix blanks. The plate was covered and the samples vortexed and centrifuged for 5 minutes at >3000 rpm. 200 μL of the samples were transferred into a clean 96-well plate for analysis. Samples were analyzed on a Waters Acquity UPLC using a Higgins Analytical Clipeus C8 column ([…], 30×2.1 mm) and a gradient of either 70-95% or 60-95% (Mobile Phase A: 5 mM ammonium formate in 50:50:1 H2O:MeOH:formic acid; Mobile Phase B: 5 mM ammonium formate in 100:1 MeOH:formic acid) over 1.3 min at 1.2 mL/min (column temperature 55° C.). Detection was based on electrospray ionization (ESI) in positive mode using a Sciex API5500 Mass Spectrometer.
The expression of hEPO in rats intravenously administered a nanoparticle composition at a dose of 0.2 mpk or 2.0 mpk was measured at 6 hours. Table 16 summarize the ratio of hEPO expression levels using various nanoparticle compositions as compared to the hEPO expression level using MC3 formulation and the lipid levels in the liver measured 48 hours after administration, as described above. Tables 17 and 18 summarize the lipid levels in the liver and spleen measured 48 hours after administration of Compounds 28, 33, 53, and 54. Liver and spleen levels represent the average values calculated for 3 rats in each group. As is shown in Tables 17 and 18, less than 10% of Compounds 28, 33, 53, and 54 remained in the liver after 48 hours, while greater than 60% of MC3 remained.
Table 19 summarizes the hEPO expression, IP-10 induction, liver and spleen levels, and alanine aminotransferase (ALT) and aspartate aminotransferase (AST) measured upon intravenous administration of formulations including Compounds 48, 49, and 50 to rat at 0.2 and 2 mpk and hEPO mRNA. hEPO concentrations were measured 6 hours after administration, while cytokine induction and liver and spleen levels were measured 48 hours after administration. hEPO and IP-10 concentrations are presented in pg/ml, while liver levels are provided in ng/g. ALT and AST levels are presented in international units.
The expression of hEPO induced by intravenous administration to rats of nanoparticle compositions at various doses was measured at 2, 4, 6, 8, 24, and 48 hour time points. FIGS. 3-6 respectively summarize the hEPO expression measured upon intravenous administration of formulations including Compounds 26, 18, 25, and MC3 to rat at various doses. The lipid levels of Compound 26 in the liver after 48 hours were about 19%.
The expression of hEPO and lipid levels in the liver and spleen in rats intravenously administered a nanoparticle composition at a dose of 0.2 mpk was measured at various timepoints. Compounds 18 and 25 were selected for comparison with MC3. Lipids were formulated according to the standard MC3 formulation described above. Rats were administered intravenously a single 0.2 mpk dose and expression monitored at 0.25, 0.5, 1, 2, 4, 8, 24, and 48 hours after administration.

A short description of series [1]: Particle size and polydispersity index of nanoparticle compositions (Zetasizer Nano ZS). It counts as physicochemical. As to conditions: for PDI: nanoparticle composition 50:10:38.5:1.5 mol % (Table 1A); for Size (nm): nanoparticle composition lipid:DSPC:cholesterol:PEG-DMG 50:10:38.5:1.5 mol %, mRNA encoding Luc or hEPO (Table 1A). From the text: Nanoparticle compositions may be characterized by a variety of methods. For example, microscopy (e.g., transmission electron microscopy or scanning electron microscopy) may be used to examine the morphology and size distribution of a nanoparticle composition. Dynamic light scattering or potentiometry (e.g., potentiometric titrations) may be used to measure zeta potentials. Dynamic light scattering may also be utilized to determine particle sizes. Instruments such as the Zetasizer Nano ZS (Malvern Instruments Ltd, Malvern, Worcestershire, UK) may also be used to measure multiple characteristics of a nanoparticle composition, such as particle size, polydispersity index, and zeta potential.
A Zetasizer Nano ZS (Malvern Instruments Ltd, Malvern, Worcestershire, UK) can be used to determine the particle size, the polydispersity index (PDI) and the zeta potential of the nanoparticle compositions in 1×PBS in determining particle size and 15 mM PBS in determining zeta potential.
Initial studies were performed to compare the delivery efficiency of nanoparticle compositions including various compounds according to Formula (I), (IA), (II), (IIa), (IIb), (IIc), (IId) or (IIe). The cationic lipid MC3 is a current standard in the art. Accordingly, the standard MC3 formulation including about 50 mol % MC3, about 10 mol % DSPC, about 38.5 mol % cholesterol, and about 1.5 mol % PEG-DMG was used as a basis for this study. Nanoparticle compositions including DSPC as a phospholipid, cholesterol as a structural lipid, PEG-DMG as a PEG lipid, an RNA, and a compound according to Formula (I), (IA), (II), (IIa), (IIb), (IIc), (IId) or (IIe) selected from Compounds 1-159, 168-170, and 173-175 were prepared according to or via methods similar to those described in Examples 1 and 2. The ratios of the lipids were 50:10:38.5:1.5 mol % for the lipid according to Formula (I), (IA), (II), (IIa), (IIb), (IIc), (IId) or (IIe):DSPC:cholesterol:PEG-DMG. The RNA used was an mRNA encoding G5 luciferase (Luc) or G5 hEPO. Tables 1A-1B summarize the content and characteristics of the formulations. […]

Series [2] concerns mice. The series is described as follows: Luc expression (total flux) after intramuscular administration. It counts as in vivo. As to conditions: 6 hours after intramuscular administration, Luc mRNA and H10 mRNA. Here is the method:
The numbers 1-7 in this figure correspond to MC3, Compounds 168-170, and 173-175 respectively.
(§1) In order to monitor how effectively various nanoparticle compositions deliver therapeutic and/or prophylactics to targeted cells, different nanoparticle compositions including a particular therapeutic and/or prophylactic (for example, a modified or naturally occurring RNA such as an mRNA) are prepared and administered to rodent populations. Mice are intravenously, intramuscularly, intraarterially, or intratumorally administered a single dose including a nanoparticle composition with a formulation such as those provided in Example 3. In some instances, mice may be made to inhale doses. Dose sizes may range from 0.001 mg/kg to 10 mg/kg, where 10 mg/kg describes a dose including 10 mg of a therapeutic and/or prophylactic in a nanoparticle composition for each 1 kg of body mass of the mouse. A control composition including PBS may also be employed.
(§2) The total flux (measured by area under the curve, AUC) induced by administration of a formulation including a given lipid relative to that induced by administration of a formulation including MC3 was also measured for several lipids.
Sample formulations including both modified luciferase (Luc) mRNA and H10 mRNA were prepared and administered intramuscularly and the resulting expression and immunogenicity were evaluated simultaneously. Formulations including compounds according to Formula (I), (IA), (II), (IIa), (IIb), (IIc), (IId) or (IIe) were prepared and administered at doses of 0.001 and 0.01 mpk (e.g., doses of 0.0005 mpk of a formulation including Luc mRNA and a formulation including H10 mRNA or doses of 0.005 mpk of a formulation including Luc mRNA and a formulation including H10 mRNA).
Sample formulations including modified luciferase (Luc) mRNA prepared and administered intramuscularly and the resulting expression and immunogenicity were evaluated simultaneously. Formulations including compounds according to Formula (I), (IA), (II), (IIa), (IIb), (IIc), (IId) or (IIe) were prepared and administered at dose of […] 0.01 mpk.
The fluxes measured upon intravenous and intramuscular administration are compared in Table 6. Fluxes are presented as fold increase over that measured for MC3 formulations.

The subject of series [3] is mice. Briefly: Luc expression (bioluminescence, total flux) after intravenous administration to mice. As to conditions: Luc total flux (Table 3D). It counts as in vivo. Here is the method:
as §1
Upon administration of nanoparticle compositions to mice, dose delivery profiles, dose responses, and toxicity of particular formulations and doses thereof can be measured by enzyme-linked immunosorbent assays (ELISA), bioluminescent imaging, or other methods. For nanoparticle compositions including mRNA, time courses of protein expression can also be evaluated. Samples collected from the rodents for evaluation may include blood, sera, and tissue (for example, muscle tissue from the site of an intramuscular injection and internal tissue); sample collection may involve sacrifice of the animals.
The efficacy of the nanoparticle compositions presented in Table 1A was evaluated with a bioluminescence study. Formulations were administered intravenously to mice (n=6) at a dosage of 0.5 mg/kg (mpk) and bioluminescence measured at 3, 6, and 24 hour time points. The standard MC3 formulation and, in some instances, a control (e.g., a PBS control) were evaluated for comparison. […] In general, flux decreased as time progressed to less than 10% of the initial flux.
as §2
The tolerability and efficacy of nanoparticle compositions to non-human primates was also investigated using sample formulations including Compounds 18, 25, 26, and 48 and MC3 to determine if these compounds are differentiated in terms of protein expression. The formulations were prepared according to the standard MC3 formulation described above and included an hEPO mRNA. Table 30 includes details of the compositions tested, while Table 31 summarizes the relative expression of Luc and hEPO mRNA in mice and rats. Expression was measured 6 hours after administration.

`CCCCCCCCC(CC)OC(=O)CCCCCCCN(CCO)CCCCCCCC(=O)OC(CCCCCCCC)CCCCCCCC` (stereo not drawn) [Compound 49, heptadecan-9-yl 8-((2-hydroxyethyl)(8-oxo-8-(undecan-3-yloxy)octyl)amino)octanoate]: in the series on rats, the “% Lipid Remaining in liver, 48 h* 2 mpk” value is recorded as 12.6%. In series [1], the PDI came out at 0.110 and the “Size (nm)” value was 73.1 nm.

Regarding `CCCCCCCCC(CCC)OC(=O)CCCCCCCN(CCO)CCCCCCCC(=O)OC(CCCCCCCC)CCCCCCCC` (stereo not drawn) [Compound 50, dodecan-4-yl 8-((8-(heptadecan-9-yloxy)-8-oxooctyl)(2-hydroxyethyl)amino)octanoate], in the series on mice [2], the “Total flux (p/s) 0.001 mpk Dose” value is 6.56E+05 p/s and the “Total flux (p/s) 0.01 mpk Dose” value stood at 1.13E+07 p/s. For the same compound, the “% Lipid Remaining in liver, 48 h* 2 mpk” value in the series on rats worked out at 15.9%.

As for `CCCCCCCCCOC(=O)CCCN(CCO)CCCCCCCC(=O)OC(CCCCCCCC)CCCCCCCC` [Compound 26, Heptadecan-9-yl 8-((2-hydroxyethyl)(4-(nonyloxy)-4-oxobutyl)amino)octanoate], in the series on mice [2], the “Total flux (p/s) 0.001 mpk Dose” value is 3.90E+06 p/s and the “Total flux (p/s) 0.01 mpk Dose” value is 6.13E+07 p/s. For the same compound, the “% Lipid Remaining in liver, 48 h* 2 mpk” value in the series on rats stood at 20%.

As to `CCCCCCCCC(C)OC(=O)CCCCCCCN(CCO)CCCCCCCC(=O)OC(CCCCCCCC)CCCCCCCC` (stereo not drawn) [Compound 48, decan-2-yl 8-((8-(heptadecan-9-yloxy)-8-oxooctyl)(2-hydroxyethyl)amino)octanoate], in the series on mice [2], the “Total flux (p/s) 0.001 mpk Dose” value is given as 4.69E+05 p/s and the “Total flux (p/s) 0.01 mpk Dose” value is 8.78E+06 p/s. In addition, the “% Lipid Remaining in liver, 48 h* 2 mpk” value in the series with rats is given as 7.22%.

As to `CCCCCCCCCOC(=O)CCCCCCCN(CCCCCCCC(=O)OC(CCCCCCCC)CCCCCCCC)C(CO)CO` [Compound 156, Heptadecan-9-yl 8-((1,3-dihydroxypropan-2-yl)(8-(nonyloxy)-8-oxooctyl)amino)octanoate], in series [1], the PDI is reported as 0.072 and the “Size (nm)” value is on record as 74.3 nm. Also, the “AUC (p/s*h)” value in the series on mice [3] was determined as 1.170E+011 p/s*h.
